Experimental data reported in PubChem BioAssay AID256 (DTP/NCI, 2004).
Inconclusive results and toxic doses are left out. The calls were made as follows: active = survival T/C of 150% or more; inactive = T/C below 125% in these data.

Test system: CD2F1 mice, L1210 leukemia ip, survival T/C
Experiment: NCI In Vivo Anticancer Drug Screen. Data for tumor model L1210 Leukemia (intraperitoneal) in CD2F1 (CDF1) mice
Details: endpoint: mean survival time, higher = longer survival
Outline: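 Read-out first: treated-group measurement over vehicle-control measurement, expressed as a ratio. Animals bore a transplanted tumor line and were dosed with compound or vehicle.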

[1] = dose: 100.0 mg/kg/injection, schedule: Q01DX009 (ip), vehicle: saline with Tween-80
[2] = dose: 100.0 mg/kg/injection, schedule: Q04DX003 (ip), vehicle: saline with Tween-80
[3] = dose: 200.0 mg/kg/injection, schedule: Q01DX009 (ip), vehicle: saline with Tween-80
[4] = dose: 200.0 mg/kg/injection, schedule: Q04DX003 (ip), vehicle: saline with Tween-80
[5] = dose: 400.0 mg/kg/injection, schedule: Q01DX009 (ip), vehicle: saline with Tween-80
[6] = dose: 400.0 mg/kg/injection, schedule: Q04DX003 (ip), vehicle: saline with Tween-80

Measured: T/C

C/C=C(/C(=O)OC)c1ccc([N+](=O)[O-])cc1
inactive: [1] 94 % of control | [2] 92 % of control | [3] 95 % of control | [4] 94 % of control | [5] 94 % of control | [6] 92 % of control

C=CCn1c(NCCN(CC)CC)nc2ccc(Cl)cc2c1=O
inactive: dose: 12.5 mg/kg/injection, schedule: Q01DX009 (ip), vehicle: saline sonified 105 % of control | dose: 12.5 mg/kg/injection, schedule: Q04DX003 (ip), vehicle: saline 100 % of control | dose: 25.0 mg/kg/injection, schedule: Q01DX009 (ip), vehicle: saline sonified 100 % of control | dose: 25.0 mg/kg/injection, schedule: Q04DX003 (ip), vehicle: saline 100 % of control | dose: 50.0 mg/kg/injection, schedule: Q01DX009 (ip), vehicle: saline sonified 103 % of control | dose: 50.0 mg/kg/injection, schedule: Q04DX003 (ip), vehicle: saline 101 % of control

CC1(CC#N)CO1 (stereo not drawn)
inactive: [2] 96 % of control | [4] 96 % of control | [6] 96 % of control

O=Cc1ccccc1O.O=Cc1ccccc1O.O=Cc1ccccc1O.[La]
inactive: [2] 89 % of control | [4] 98 % of control

Nc1ncnc2c1nc(Br)n2C1OC(CO)C(O)C1O (stereo not drawn)
inactive: dose: 100.0 mg/kg/injection, schedule: Q04DX002 (ip), vehicle: saline with Tween-80 95 % of control | dose: 200.0 mg/kg/injection, schedule: Q04DX002 (ip), vehicle: saline with Tween-80 98 % of control | dose: 400.0 mg/kg/injection, schedule: Q04DX002 (ip), vehicle: saline with Tween-80 98 % of control

CN(C)Cc1c(-c2ccccc2)c(CN(C)C)n2ccccc12
inactive: dose: 75.0 mg/kg/injection, schedule: Q01DX001 (ip), vehicle: saline 97 % of control

O=C1C=CC(=NS(=O)(=O)c2ccccc2)C=C1
inactive: dose: 25.0 mg/kg/injection, schedule: Q01DX001 (ip), vehicle: other 93 % of control | dose: 50.0 mg/kg/injection, schedule: Q01DX001 (ip), vehicle: other 95 % of control | dose: 100.0 mg/kg/injection, schedule: Q01DX001 (ip), vehicle: other 104 % of control

NS(=O)(=O)c1ccc(NC(=O)Nc2cccc(F)c2)cc1
inactive: [1] 98 % of control | [3] 106 % of control | [5] 97 % of control

CC12CCC(O)CC1CCC1C2CCC2(C)C(C3=CC(=O)OC3)CCC12O (stereo not drawn)
inactive: dose: 12.5 mg/kg/injection, schedule: Q04DX003 (ip), vehicle: Klucel (hydroxypropylcellulose) (HPC) 92 % of control | dose: 25.0 mg/kg/injection, schedule: Q04DX003 (ip), vehicle: Klucel (hydroxypropylcellulose) (HPC) 100 % of control | dose: 50.0 mg/kg/injection, schedule: Q04DX003 (ip), vehicle: Klucel (hydroxypropylcellulose) (HPC) 92 % of control

CCOC(=O)C(=Cc1ccc(O)c(OC)c1)C(=O)OCC
inactive: dose: 100.0 mg/kg/injection, schedule: Q01DX001 (ip), vehicle: saline with Tween-80 104 % of control | [1] 93 % of control | dose: 200.0 mg/kg/injection, schedule: Q01DX001 (ip), vehicle: saline with Tween-80 101 % of control | [3] 101 % of control | dose: 400.0 mg/kg/injection, schedule: Q01DX001 (ip), vehicle: saline with Tween-80 108 % of control | [5] 101 % of control

CCCCOC(=O)C(C)(C)O
inactive: [2] 96 % of control | [4] 102 % of control | [6] 98 % of control

CCCC(NC(=O)C(C)Br)C(=O)O (stereo not drawn)
inactive: [2] 95 % of control | [4] 96 % of control | [6] 100 % of control

CN(C)c1ccc(/C=N/N=C(/N)N[N+](=O)[O-])cc1
inactive: dose: 100.0 mg/kg/injection, schedule: Q01DX001 (ip), vehicle: saline 94 % of control | dose: 200.0 mg/kg/injection, schedule: Q01DX001 (ip), vehicle: saline 97 % of control

S=C(SN1CCCCC1)N1CCCCC1
inactive: dose: 50.0 mg/kg/injection, schedule: Q04DX003 (ip), vehicle: other 96 % of control | dose: 100.0 mg/kg/injection, schedule: Q04DX003 (ip), vehicle: other 96 % of control | dose: 200.0 mg/kg/injection, schedule: Q04DX003 (ip), vehicle: other 91 % of control

O=C(Sc1cn(C2CC(O)C(CO)O2)c(=O)[nH]c1=O)c1ccc(N(CCCl)CCCl)cc1 (stereo not drawn)
inactive: dose: 12.5 mg/kg/injection, schedule: Q01DX005 (ip), vehicle: water 117 % of control | dose: 25.0 mg/kg/injection, schedule: Q01DX005 (ip), vehicle: water 115 % of control | dose: 50.0 mg/kg/injection, schedule: Q01DX005 (ip), vehicle: water 124 % of control | dose: 66.0 mg/kg/injection, schedule: Q01DX005 (ip), vehicle: water 119 % of control | dose: 100.0 mg/kg/injection, schedule: Q01DX005 (ip), vehicle: water 119 % of control | dose: 200.0 mg/kg/injection, schedule: Q01DX005 (ip), vehicle: water 120 % of control
